Laboratory results: PMC10112521, “High-throughput AR dimerization assay identifies androgen disrupting chemicals and metabolites” (Frontiers in Toxicology, 2023)
Where two headings read alike, the source gives them in different places.

Key:
[1] = tested on: AR2 cells (HepG2-AR2); test: Alamar Blue (resazurin) post hoc cell viability / cytotoxicity assay in AR2 cells; settings: spid Viability, sheet antagonist_fits; for hill_tp (Hill model top): 0 where win_model is Constant
Description: (§1) For antagonist mode and cytotoxicity data, well-level normalized response (resp) was calculated as: resp=100 * RLU−bval/pval−bval where pval is the median RLU value of the MEC positive control wells (minimum four wells).

[2] = tested on: AR2 cells (HepG2-AR2)
Description: as §1

[3] = tested on: AR; parameters: method as in Kleinstreuer et al., 2017; settings: 2017, cited from earlier work; for Agonist reference: AR agonist reference class ref Kleinstreuer et al.; for Antagonist reference: AR antagonist reference class ref Kleinstreuer et al.
[4] = biological target: T1, human AR (Homo sapiens, UniProt P10275); test: AR2 assay, agonist mode: ligand-dependent AR homodimerization (NanoBiT luciferase complementation) in stable HepG2-AR2 cells; assay type: cell-based; settings: sheet agonist_fits; for hill_tp: Hill model top (efficacy), 0 given where win_model is Constant; for max_med: maximum median response; for win_model: winning concentration-response model (Constant, Hill, Gain-Loss);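 as to hill tp: Log2 fold change of luminescence over DMSO vehicle wells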;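 as to max med: Log2 fold change of luminescence over DMSO vehicle wells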
T1 sequence (P10275 1-920) 1: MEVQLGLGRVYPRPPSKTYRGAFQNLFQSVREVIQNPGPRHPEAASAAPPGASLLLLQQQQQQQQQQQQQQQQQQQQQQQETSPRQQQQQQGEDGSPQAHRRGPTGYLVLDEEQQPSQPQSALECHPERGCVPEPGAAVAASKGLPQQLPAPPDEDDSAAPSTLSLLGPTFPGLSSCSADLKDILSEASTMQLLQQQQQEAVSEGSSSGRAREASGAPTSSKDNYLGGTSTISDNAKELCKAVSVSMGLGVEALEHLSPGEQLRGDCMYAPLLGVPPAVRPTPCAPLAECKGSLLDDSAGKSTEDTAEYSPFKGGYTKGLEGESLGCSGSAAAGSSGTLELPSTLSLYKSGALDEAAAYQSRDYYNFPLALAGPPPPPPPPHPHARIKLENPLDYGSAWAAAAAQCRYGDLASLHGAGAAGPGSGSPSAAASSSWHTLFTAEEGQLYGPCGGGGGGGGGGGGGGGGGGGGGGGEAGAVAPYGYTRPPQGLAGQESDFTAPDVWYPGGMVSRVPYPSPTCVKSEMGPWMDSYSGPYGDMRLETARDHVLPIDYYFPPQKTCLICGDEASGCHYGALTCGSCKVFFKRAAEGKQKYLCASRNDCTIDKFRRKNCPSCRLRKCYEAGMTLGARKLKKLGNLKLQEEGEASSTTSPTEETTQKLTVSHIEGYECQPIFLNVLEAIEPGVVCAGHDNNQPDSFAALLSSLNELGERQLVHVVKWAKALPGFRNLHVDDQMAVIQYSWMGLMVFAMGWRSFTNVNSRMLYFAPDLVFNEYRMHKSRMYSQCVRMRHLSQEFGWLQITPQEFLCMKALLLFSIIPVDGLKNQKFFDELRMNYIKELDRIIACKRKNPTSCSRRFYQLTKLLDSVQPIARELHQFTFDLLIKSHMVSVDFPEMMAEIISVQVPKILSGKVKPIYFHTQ
T1 sequence (P10275 1-920) 2: T1 sequence (P10275 1-920) 1

[5] = biological target: T1, human AR; test: cell-based; parameters: species or system AR2 cells (HepG2-AR2); NanoLuc complementation AR homodimerization, antagonist mode, loss of agonist-induced luminescence, AC50 by Hill fit; settings: hill_ga
[6] = biological target: T1, human AR; test: AR2 assay, antagonist mode: disruption of R1881 (10 nM)-induced AR homodimerization in HepG2-AR2 cells; assay type: cell-based; settings: spid AR_antagonist, sheet antagonist_fits; for hill_gw (Hill model slope) / hill_tp (Hill model top): 0 where win_model is Constant

Structure (SMILES)	max_med (maximum median response) [1]	hill_tp (Hill model top) [1]	hill_ga (Hill model log AC50) [2]	other results
CC(C)(C)CC(C)(C)c1ccc(O)cc1 [4-(1,1,3,3-Tetramethylbutyl)phenol]	99.7722	100.987	1.5	
CC(C)(c1ccccc1)c1ccc(O)cc1 [4-Cumylphenol]	99.676		1.81	
Nc1nc[nH]n1 [Amitrole]	20.9539	26.1033	1.008	
O=c1cc(-c2ccc(O)cc2)oc2cc(O)cc(O)c12 [Apigenin]	44.3137	57.4844	1.291	
CCNc1nc(Cl)nc(NC(C)C)n1 [Atrazine]	11.6649	7.792	1.242	Agonist reference [3]: Inactive; Antagonist reference [3]: Inactive; Agonist reference ([3]; Supplementary Table S1): Inactive; Antagonist reference ([3]; Supplementary Table S1): Inactive
Oc1ccc(C(c2ccc(O)cc2)(C(F)(F)F)C(F)(F)F)cc1 [Bisphenol AF]	99.8528	100.2	1.485	
CCC(C)(c1ccc(O)cc1)c1ccc(O)cc1 [Bisphenol B]	49.2471	49.223	1.739	
CNC(=O)Oc1cccc2c1OC(C)(C)C2 [Carbofuran]	23.3178	15.7111		hill_tp [4]: 0; max_med [4]: 0.1027; win_model [4]: Constant; AC50 [5]: 44.2 µM; max_med (maximum median response) [6]: 28.4656; win_model (winning concentration-response model) [6]: Hill; hill_gw (Hill model slope) [6]: 1.516; hill_tp (Hill model top) [6]: 33.2623
CC1(C)C(C=C(Cl)Cl)C1C(=O)OC(C#N)c1ccc(F)c(Oc2ccccc2)c1 (stereo not drawn) [Cyfluthrin]	9.8887	0	0	Agonist reference [3]: Inactive
CC1(C)C(C=C(Cl)Cl)C1C(=O)OC(C#N)c1cccc(Oc2ccccc2)c1 (stereo not drawn) [Cypermethrin]	5.609	0	0	Agonist reference [3]: Inactive
O=c1c(-c2ccc(O)cc2)coc2cc(O)ccc12 [Daidzein]	12.142	8.263		hill_tp [4]: 0; max_med [4]: 0.1579; win_model [4]: Constant; AC50 ([5]; spid=Bgal, antagonist mode, 10 nM agonist stimulus, 18 h, no CYP expressed): 59.8 µM; AC50 ([5]; spid=No_RNA, antagonist mode, 10 nM agonist stimulus, 18 h, no CYP expressed): 46.5 µM; max_med (maximum median response) [6]: 67.6764; win_model (winning concentration-response model) [6]: Hill; hill_gw (Hill model slope) [6]: 1.585; hill_tp (Hill model top) [6]: 87.2882; Agonist reference ([3]; Supplementary Table S1): Inactive
CCCCOC(=O)c1ccccc1C(=O)OCCCC [Dibutyl phthalate]	27.2383	28.3952	1.084	
N#Cc1c(Cl)cccc1Cl [Dichlobenil]	10.2924	0	0	
CCOC(=O)c1ccccc1C(=O)OCC [Diethyl phthalate]	22.6345	17.9391	0.07147	
